Measurements as given in patent publication US20250009742A1 (priority 2021, published 2025).
Like-named read-outs stand apart in the source and are kept apart here.

Key:
[1] = Cell viability assay (EZ-Cytox), cytotoxicity; assay type: cell-based; details: human, HepAD38 cells
Experimental: (§1) HepAD38 cells were cultured for 2 days in Dulbecco's Modified Eagle's medium (Welgene, LM001-05) supplemented with 10% FBS without tetracycline. […] After 65 hours of treatment, viability was measured using EZ-Cytox cell viability assay kit (Daeil Lab Service) according to the manufacturer's instructions. The absorbance was measured at 450 nm using a spectrophotometer (Spark, Tecan).

[2] = test system: HepAD38 cells; assay: Cell viability assay (EZ-Cytox), cytotoxicity; assay type: cell-based; details: 65 hours
Experimental: as §1

[3] = test system: intracellular HBV DNA; assay: Real-time PCR for intracellular HBV DNA in HepAD38 cells; assay type: cell-based; details: 65 hours treatment
[4] = target: Protein (Hepatitis B virus genotype D subtype ayw, UniProt P03146); assay: Protein inhibition rate / EC50 (Table 1, no method described); assay type: biochemical
Protein, sequence (P03146 whole entry): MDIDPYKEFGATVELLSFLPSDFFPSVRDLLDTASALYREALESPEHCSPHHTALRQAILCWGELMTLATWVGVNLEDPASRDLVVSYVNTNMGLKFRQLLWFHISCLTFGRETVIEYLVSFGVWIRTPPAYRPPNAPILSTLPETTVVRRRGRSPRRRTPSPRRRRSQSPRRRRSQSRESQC

Molecule | CC50 at 65 h [1] [nM] | Cytotoxicity % Livability (@100 μM) [2] [%] | IC50 ([3]; Hepatitis B virus, HePAD38, 65 h) [nM] | CC50 [2] [nM] | IC50 [3] [nM] | IC50 ([3]; read-out: IC50) [nM] | EC50 [4] [nM] | Protein % inhibition rate (@30 μM) ([4]; @30 μM) [%]
COc1ncc(N(Cc2n[nH]c(C(F)F)c2Br)C(=O)Nc2ccc(F)c(Cl)c2)cn1 [Example 98, 1-((4-bromo-5-(difluoromethyl)-1H-pyrazol-3-yl)methyl)-3-(3-chloro-4-fluorophenyl)-1-(2-methoxypyrimidin-5-yl)urea] | > 66000 | 30.1 | 18 |  |  |  |  | 
COc1ncc(N(Cc2n[nH]c(C(F)F)c2Br)C(=O)Nc2ccc(F)c(Cl)c2)cn1 [Example 81, 1-((4-bromo-5-(difluoromethyl)-1H-pyrazol-3-yl)methyl)-3-(3-chloro-4-fluorophenyl)-1-(2-methoxypyrimidin-5-yl)urea] |  | 76.0 |  | > 100000 | 14.5 |  |  | 
1-((4-bromo-1H-pyrazol-3-yl)methyl)-3-(3-chloro-4-fluorophenyl)-1-(4-methoxyphenyl)urea [Example 61] |  | 40.8 |  | 98800 |  | 502 | 4400 | 81.8
